Inhibition data for 10 compounds are collected here from patent US12162820B2 (TAIWANJ PHARMACEUTICALS CO., LTD., priority 2019, dated 2024).

Holding throughout (assay type): biochemical
The target of one assay is T1, ATX (autotaxin) (Homo sapiens, UniProt Q13822).
T1 construct: purchased Cayman 10803
Description: Autotaxin Inhibition Screening Assay (choline release from LPC, LPC-CR). The note with it: for inhibition at 4 µM: 4 μM compound; for inhibition at 20 µM: 20 μM compound; for inhibition at 50 µM: 50 μM compound. The procedure: ATX (autotaxin) activity was measured by choline release from LPC in presence or absence of test compounds (Compounds 1˜83; at concentrations of 4 μM, 20 μM and 50 μM). Twenty (20) ng ATX (10803, Cayman, MI, USA) was incubated with 100 μM 14:0 LPC (855575P, Avanti, AL, USA) in a final volume of 100 μL buffer containing 50 mM Tris pH 8.0, 0.01% Triton X-100, 50 mM CaCl2, 1 unit/ml choline oxidase, 2 unit/ml horseradish peroxidase (HRP), 2 mM homovanilic acid (HVA). The relative amount of released choline was measured by HVA fluorescence in a 96-well plate. Fluorescent intensity was determined at λex/λem=320/450 nm every 60 sec for 90 min with a SpectraMax i3 (Molecular Devices, CA, USA). Data analysis was performed using GraphPad Prism (GraphPad, La Jolla CA, USA). Inhibition %=[1−(SlopeTA−SlopeBlank)/(SlopeVehicle−SlopeBlank)]×100% HDAC Inhibition Screening Assay

The target in a further assay is T2, HDAC3 (Homo sapiens, UniProt O15379).
T2 construct: purchased Enzo Life Sciences
T2 sequence (O15379 whole entry): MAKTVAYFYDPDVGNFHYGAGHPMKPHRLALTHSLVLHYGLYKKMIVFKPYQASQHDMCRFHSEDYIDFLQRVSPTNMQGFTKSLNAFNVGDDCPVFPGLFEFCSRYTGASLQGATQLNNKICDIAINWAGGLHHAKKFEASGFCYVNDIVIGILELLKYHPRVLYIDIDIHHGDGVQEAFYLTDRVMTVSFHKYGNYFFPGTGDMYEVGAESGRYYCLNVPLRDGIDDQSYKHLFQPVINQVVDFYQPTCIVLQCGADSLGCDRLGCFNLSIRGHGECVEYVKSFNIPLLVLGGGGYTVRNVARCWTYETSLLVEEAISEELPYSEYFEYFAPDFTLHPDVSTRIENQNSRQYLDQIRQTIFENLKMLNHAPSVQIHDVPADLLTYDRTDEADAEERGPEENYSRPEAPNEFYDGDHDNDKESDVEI
T2 sequence (O75376 395-489 partner limits assumed): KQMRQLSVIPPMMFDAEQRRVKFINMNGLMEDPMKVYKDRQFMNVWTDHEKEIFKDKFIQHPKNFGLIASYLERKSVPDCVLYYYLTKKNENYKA
Kind of assay: HDAC Inhibition Screening Assay (FLUOR DE LYS Fluorimetric Drug Discovery Kit), HDAC3. The settings on record: for inhibition at 2 µM: 2 μM compound; for inhibition at 10 µM: 10 μM compound; for inhibition at 50 µM: 50 μM compound. The procedure:
(§1) The HDAC1/HDAC2/HDAC3 in vitro activities are detected by Enzo Life Sciences' HDAC1/HDAC2/HDAC3 Fluorimetric Drug Discovery Kit. The assay is based on the FLUOR DE LYS® Substrate and FLUOR DE LYS® Developer combination. The assay procedure has two steps. First, the FLUOR DE LYS® Substrate, which comprises an acetylated lysine side chain, is incubated with HDAC1/HDAC2/HDAC3, respectively. Deacetylation of the substrate sensitizes the substrate so that, in the second step, treatment with the FLUOR DE LYS® Developer produces a fluorophore. The signals of the test compounds (Compounds 1˜83; at concentrations of 2 μM, 10 μM and 50 μM) in 96-well plates are detected at 360 nm or 485 nm excitation and 460 nm or 530 nm emission with a Molecular Devices SpectraMax i3 Imaging Cytometer. The HDAC1/HDAC2/HDAC3 activities are expressed in percentage of basal control minus baseline control.

The target in the next assay is T3, HDAC2 (Homo sapiens, UniProt Q92769).
T3 construct: purchased Enzo Life Sciences
T3 sequence (Q92769 whole entry): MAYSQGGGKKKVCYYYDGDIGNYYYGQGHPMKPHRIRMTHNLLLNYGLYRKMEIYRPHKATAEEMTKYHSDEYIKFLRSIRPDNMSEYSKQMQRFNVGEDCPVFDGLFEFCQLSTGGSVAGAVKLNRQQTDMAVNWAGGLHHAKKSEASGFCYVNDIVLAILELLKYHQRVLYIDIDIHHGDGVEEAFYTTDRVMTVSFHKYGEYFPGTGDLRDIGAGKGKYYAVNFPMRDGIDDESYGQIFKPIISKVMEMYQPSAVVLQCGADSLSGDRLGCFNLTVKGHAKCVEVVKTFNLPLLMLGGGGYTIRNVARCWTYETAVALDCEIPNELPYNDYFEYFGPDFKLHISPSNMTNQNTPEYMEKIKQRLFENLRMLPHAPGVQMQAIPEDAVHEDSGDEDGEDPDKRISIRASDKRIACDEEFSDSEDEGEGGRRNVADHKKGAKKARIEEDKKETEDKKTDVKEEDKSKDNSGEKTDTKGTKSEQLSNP
Description: HDAC Inhibition Screening Assay (FLUOR DE LYS Fluorimetric Drug Discovery Kit), HDAC2. The settings on record: for inhibition at 2 µM: 2 μM compound; for inhibition at 10 µM: 10 μM compound; for inhibition at 50 µM: 50 μM compound. The procedure:
as §1

A further assay addresses T4, HDAC1 (Homo sapiens, UniProt Q13547).
T4 construct: purchased Enzo Life Sciences
Description: HDAC Inhibition Screening Assay (FLUOR DE LYS Fluorimetric Drug Discovery Kit), HDAC1. The note with it: for inhibition at 2 µM: 2 μM compound; for inhibition at 10 µM: 10 μM compound; for inhibition at 50 µM: 50 μM compound. The procedure: as §1

T4 sequence (Q13547 whole entry): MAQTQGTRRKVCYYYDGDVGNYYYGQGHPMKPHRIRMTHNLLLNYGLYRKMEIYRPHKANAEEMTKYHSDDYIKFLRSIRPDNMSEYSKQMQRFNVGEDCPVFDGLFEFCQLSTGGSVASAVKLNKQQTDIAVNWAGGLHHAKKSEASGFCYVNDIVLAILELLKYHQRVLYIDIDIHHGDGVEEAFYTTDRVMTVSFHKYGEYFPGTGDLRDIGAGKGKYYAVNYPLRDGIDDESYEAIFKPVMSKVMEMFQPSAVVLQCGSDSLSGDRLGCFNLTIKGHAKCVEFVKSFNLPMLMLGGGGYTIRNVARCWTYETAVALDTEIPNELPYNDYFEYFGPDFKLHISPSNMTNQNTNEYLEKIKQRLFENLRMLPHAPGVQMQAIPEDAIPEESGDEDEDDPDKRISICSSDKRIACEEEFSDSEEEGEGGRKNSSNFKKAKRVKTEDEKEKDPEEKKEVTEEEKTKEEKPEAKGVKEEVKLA

As for `O=C(CCCCC(=O)N1CCN(C(=O)c2ccc3c(c2)CC/C(=C\c2cc(C(F)(F)F)cc(C(F)(F)F)c2)C3=O)CC1)NO` [Compound 83, (E)-6-(4-(6-(3,5-bis(trifluoromethyl)benzylidene)-5-oxo-5,6,7,8-tetrahydro-naphthalene-2-carbonyl)piperazin-1-yl)-N-hydroxy-6-oxohexanamide], on ATX (autotaxin), the inhibition (in general, the relative decrease from the control value, in per cent) at 4 µM was above 80%; the inhibition at 20 µM is above 80%; the inhibition at 50 µM is above 80%. Besides, at HDAC3, the inhibition at 2 µM is below 50%, the inhibition at 10 µM is below 50% and the inhibition at 50 µM lay within 50 to 80%. On HDAC2, the inhibition at 2 µM was below 50%, the inhibition at 10 µM was below 50% and the inhibition at 50 µM lay in the range of 50 to 80%. At HDAC1, the inhibition at 2 µM is below 50%, the inhibition at 10 µM was below 50% and the inhibition at 50 µM fell in the range of 50 to 80%.

Take `O=C(/C=C/c1ccc2c(c1)CC/C(=C\c1cc(C(F)(F)F)cc(C(F)(F)F)c1)C2=O)NCCCCCC(=O)NO` [Compound 8, 6-((E)-3-(6-((E)-3,5-bis(trifluoromethyl)benzylidene)-5-oxo-5,6,7,8-tetrahydronaphthalen-2-yl)acrylamido)-N-hydroxyhexanamide]: at ATX (autotaxin), the inhibition at 4 µM was above 80%, the inhibition at 20 µM is above 80% and the inhibition at 50 µM is above 80%. Moreover, at HDAC3, the inhibition at 2 µM is below 50%, the inhibition at 10 µM is above 80% and the inhibition at 50 µM is above 80%. Also, at HDAC2, the inhibition at 2 µM was above 80%, the inhibition at 10 µM was above 80% and the inhibition at 50 µM is above 80%. On HDAC1, the inhibition at 2 µM fell in the range of 50 to 80%, the inhibition at 10 µM was above 80% and the inhibition at 50 µM is above 80%.

For `COc1ccc(C(=O)NC2CCc3cc(/C=C/C(=O)NO)ccc32)cc1` (stereo not drawn) [Compound 25, (E)-N-(5-(3-(hydroxyamino)-3-oxoprop-1-en-1-yl)-2,3-dihydro-1H-inden-1-yl)-4-methoxybenz amide], on ATX (autotaxin), the inhibition at 4 µM was below 50%, the inhibition at 20 µM was below 50% and the inhibition at 50 µM was below 50%. Moreover, at HDAC3, the inhibition at 2 µM was above 80%, the inhibition at 10 µM was above 80% and the inhibition at 50 µM is above 80%. Besides, at HDAC2, the inhibition at 2 µM is above 80%, the inhibition at 10 µM was above 80% and the inhibition at 50 µM is above 80%. Moreover, at HDAC1, the inhibition at 2 µM was above 80%, the inhibition at 10 µM is above 80% and the inhibition at 50 µM was above 80%.

In the case of `CN(C)c1ccc(C(=O)NC2CCc3cc(/C=C/C(=O)NO)ccc32)cc1` (stereo not drawn) [Compound 26, (E)-4-(dimethylamino)-N-(5-(3-(hydroxyamino)-3-oxoprop-1-en-1-yl)-2,3-dihydro-1H-inden-1-yl)benzamide], on ATX (autotaxin), the inhibition at 4 µM is below 50%, the inhibition at 20 µM is below 50% and the inhibition at 50 µM was below 50%. Moreover, on HDAC3, the inhibition at 2 µM was above 80%, the inhibition at 10 µM was above 80% and the inhibition at 50 µM was above 80%. Besides, on HDAC2, the inhibition at 2 µM is above 80%, the inhibition at 10 µM is above 80% and the inhibition at 50 µM was above 80%. In addition, on HDAC1, the inhibition at 2 µM was above 80%, the inhibition at 10 µM was above 80% and the inhibition at 50 µM was above 80%.

Consider `Nc1cc(F)ccc1NC(=O)CCCCCNC(=O)/C=C/c1ccc2c(c1)CCC2NC(=O)c1ccc(F)cc1` (stereo not drawn) [Compound 31, (E)-N-(5-(3-((6-((2-amino-4-fluorophenyl)amino)-6-oxohexyl)amino)-3-oxoprop-1-en-1-yl)-2,3-dihydro-1H-inden-1-yl)-4-fluorobenzamide], for which, at ATX (autotaxin), the inhibition at 4 µM is below 50%, the inhibition at 20 µM was below 50% and the inhibition at 50 µM is below 50%. At HDAC3, the inhibition at 2 µM was 50 to 80%, the inhibition at 10 µM was above 80% and the inhibition at 50 µM is above 80%. Moreover, on HDAC2, the inhibition at 2 µM is above 80%, the inhibition at 10 µM was above 80% and the inhibition at 50 µM was above 80%. On HDAC1, the inhibition at 2 µM is below 50%, the inhibition at 10 µM lay in the range of 50 to 80% and the inhibition at 50 µM lay within 50 to 80%.

As for `O=C(/C=C/c1ccc2c(c1)CCC2NCc1cc(C(F)(F)F)cc(C(F)(F)F)c1)NO` (stereo not drawn) [Compound 33, (E)-3-(1-((3,5-bis(trifluoromethyl)benzyl)amino)-2,3-dihydro-1H-inden-5-yl)-N-hydroxyacrylamide], at ATX (autotaxin), the inhibition at 4 µM is below 50%, the inhibition at 20 µM is below 50% and the inhibition at 50 µM was below 50%. For the same compound, at HDAC3, the inhibition at 2 µM fell in the range of 50 to 80%, the inhibition at 10 µM was above 80% and the inhibition at 50 µM is above 80%. On HDAC2, the inhibition at 2 µM is 50 to 80%, the inhibition at 10 µM was above 80% and the inhibition at 50 µM is above 80%. Besides, at HDAC1, the inhibition at 2 µM was 50 to 80%, the inhibition at 10 µM was above 80% and the inhibition at 50 µM is above 80%.

As to `COc1ccc2c(c1)CCCC2NC(=O)CCCCCCC(=O)Nc1ccc(F)cc1N` (stereo not drawn) [Compound 47, N1-(2-amino-4-fluorophenyl)-N8-(6-methoxy-1,2,3,4-tetrahydronaphthalen-1-yl)octanediamide], on ATX (autotaxin), the inhibition at 4 µM was below 50%, the inhibition at 20 µM is below 50% and the inhibition at 50 µM is below 50%. Besides, on HDAC3, the inhibition at 2 µM is 50 to 80%, the inhibition at 10 µM lay in the range of 50 to 80% and the inhibition at 50 µM is above 80%. For the same compound, at HDAC2, the inhibition at 2 µM was below 50%, the inhibition at 10 µM is 50 to 80% and the inhibition at 50 µM lay within 50 to 80%. Also, at HDAC1, the inhibition at 2 µM was below 50%, the inhibition at 10 µM was below 50% and the inhibition at 50 µM is below 50%.

At ATX (autotaxin), `COc1ccc2c(c1)CCCC2NC(=O)CCCCCCC(=O)NO` (stereo not drawn) [Compound 48, N^1-hydroxy-N^8-(6-methoxy-1,2,3,4-tetrahydronaphthalen-1-yl)octanediamide] displayed an inhibition at 4 µM below 50%, an inhibition at 20 µM below 50% and an inhibition at 50 µM below 50%. In addition, on HDAC3, the inhibition at 2 µM is above 80%, the inhibition at 10 µM is above 80% and the inhibition at 50 µM is above 80%. Further, at HDAC2, the inhibition at 2 µM is above 80%, the inhibition at 10 µM is above 80% and the inhibition at 50 µM is above 80%. Further, on HDAC1, the inhibition at 2 µM was above 80%, the inhibition at 10 µM was above 80% and the inhibition at 50 µM was above 80%.

In the case of `Nc1cc(F)ccc1NC(=O)/C=C/c1ccc2c(c1)CCC2NCCC(=O)Nc1cc(C(F)(F)F)cc(C(F)(F)F)c1` (stereo not drawn) [Compound 49, (E)-N-(2-amino-4-fluorophenyl)-3-(1-((3-((3,5-bis(trifluoromethyl)phenyl)amino)-3-oxopropyl)amino)-2,3-dihydro-1H-inden-5-yl)acrylamide], at ATX (autotaxin), the inhibition at 4 µM was below 50%, the inhibition at 20 µM was below 50% and the inhibition at 50 µM is below 50%. Moreover, on HDAC3, the inhibition at 2 µM was below 50%, the inhibition at 10 µM was below 50% and the inhibition at 50 µM lay in the range of 50 to 80%. In addition, on HDAC2, the inhibition at 2 µM is below 50%, the inhibition at 10 µM was below 50% and the inhibition at 50 µM was in the range of 50 to 80%. Further, at HDAC1, the inhibition at 2 µM is below 50%, the inhibition at 10 µM was below 50% and the inhibition at 50 µM was below 50%.

On ATX (autotaxin), `Cc1[nH]c2ccccc2c1CCNC1CCCc2cc(/C=C/C(=O)NO)ccc21` (stereo not drawn) [Compound 63, (E)-N-hydroxy-3-(5-((2-(2-methyl-1H-indol-3-yl)ethyl)amino)-5,6,7,8-tetrahydronaphthalen-2-yl)acrylamide] returned an inhibition at 4 µM below 50%, an inhibition at 20 µM below 50% and an inhibition at 50 µM below 50%. At HDAC3, the inhibition at 2 µM is above 80%, the inhibition at 10 µM is above 80% and the inhibition at 50 µM was above 80%. Further, on HDAC2, the inhibition at 2 µM is above 80%, the inhibition at 10 µM was above 80% and the inhibition at 50 µM was above 80%. At HDAC1, the inhibition at 2 µM was above 80%, the inhibition at 10 µM is above 80% and the inhibition at 50 µM was above 80%.
